Experimental data taken from patent US20250205259A1, “CLASS OF 7-((FIVE-MEMBERED HETEROCYCLIC)METHYL)-8-CARBOXYLIC ACID-BENZO CYCLIC BORATE DERIVATIVES AND USES THEREOF” (priority 2022, published 2025).
Read-outs that look alike come from different tables or passages of the source.

What was measured:
[1] = target: NDM-1 (Klebsiella pneumoniae, UniProt C7C422); assay: Inhibitory activity on MBL, fluorescent substrate FC-5; format: biochemical
[2] = target: NDM-5 (Klebsiella pneumoniae, UniProt C7C422, M154L/V88L); assay: as above; format: biochemical
[3] = target: IMP-1 (Serratia marcescens, UniProt P52699); assay: as above; format: biochemical; conditions: read-out: Inhibitory activity on MBL IMP-1 (IC50 class)
[4] = target: VIM-1 (Pseudomonas aeruginosa, UniProt A0A0F7KYQ8); assay: as above; format: biochemical
[5] = target: VIM-2 (Escherichia coli, UniProt Q5U7L7); assay: as above; format: biochemical; conditions: read-out: Inhibitory activity on MBL VIM-2 (IC50 class)
[6] = target: KPC-2 (Klebsiella pneumoniae, UniProt Q9F663); assay: Inhibitory activity on SBL, fluorescent substrate FC-5; format: biochemical; conditions: for inhibitory activity on KPC-2 compared to avibactam: comparison in words; for IC50: read-out: Inhibitory activity on SBL KPC-2 (IC50 class)
[7] = target: TEM-1 (Escherichia coli, UniProt P62593); assay: as above; format: biochemical; conditions: for inhibitory activity on TEM-1 compared to avibactam: comparison in words; for IC50: read-out: Inhibitory activity on SBL TEM-1 (IC50 class)
[8] = target: T1, SHV-12 (UniProt P0AD64, L31Q/G234S/E235K, species not given); assay: as above; format: biochemical; conditions: for inhibitory activity on SHV-12 compared to control drugs: comparison in words; for IC50: read-out: Inhibitory activity on SBL SHV-12 (IC50 class)
T1 sequence (P0AD64 1-286 L31Q/G234S/E235K): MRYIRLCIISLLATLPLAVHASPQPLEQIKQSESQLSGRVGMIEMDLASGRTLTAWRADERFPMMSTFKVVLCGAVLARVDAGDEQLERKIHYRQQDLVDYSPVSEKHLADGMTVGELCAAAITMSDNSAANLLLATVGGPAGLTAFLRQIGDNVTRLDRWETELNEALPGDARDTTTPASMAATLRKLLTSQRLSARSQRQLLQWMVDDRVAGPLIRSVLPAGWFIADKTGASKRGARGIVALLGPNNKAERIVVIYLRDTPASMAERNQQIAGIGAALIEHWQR

[9] = target: CTX-M-14 (Escherichia coli, UniProt Q9L5C7); assay: as above; format: biochemical; conditions: for inhibitory activity on CTX-M-14 compared to avibactam: comparison in words; for IC50: read-out: Inhibitory activity on SBL CTX-M-14 (IC50 class)
[10] = target: OXA-48 (Klebsiella pneumoniae, UniProt Q6XEC0); assay: as above; format: biochemical; conditions: for inhibitory activity on OXA-48 compared to avibactam: comparison in words; for IC50: read-out: Inhibitory activity on SBL OXA-48 (IC50 class)
[11] = target: AmpC (UniProt P24735); assay: as above; conditions: read-out: Inhibitory activity on SBL AmpC (IC50 class)
[12] = tested on: Escherichia coli expressing IMP-1; assay: Antibacterial activity in combination with meropenem (MIC), clinically isolated strains; format: cell-based; conditions: clinical isolate EC1541 (blaIMP-1), compound final concentration 10 μM
[13] = tested on: Klebsiella pneumoniae expressing KPC-2; assay: as above; conditions: compound final concentration 10 μM
[14] = read-out: Inhibitory activity on MBL NDM-1 (IC50 class)
[15] = read-out: inhibitory activity at a nanomolar-level on NDM-1
[16] = read-out: Inhibitory activity on MBL NDM-5 (IC50 class)
[17] = read-out: inhibitory activity at a nanomolar-level on NDM-5
[18] = VIM-1 and/or VIM-2, read-out: inhibitory activity at a nanomolar-level on VIM-1 and/or VIM-2
[19] = read-out: Inhibitory activity on MBL VIM-1 (IC50 class)

KPC-2, sequence (Q9F663 25-293 limits assumed): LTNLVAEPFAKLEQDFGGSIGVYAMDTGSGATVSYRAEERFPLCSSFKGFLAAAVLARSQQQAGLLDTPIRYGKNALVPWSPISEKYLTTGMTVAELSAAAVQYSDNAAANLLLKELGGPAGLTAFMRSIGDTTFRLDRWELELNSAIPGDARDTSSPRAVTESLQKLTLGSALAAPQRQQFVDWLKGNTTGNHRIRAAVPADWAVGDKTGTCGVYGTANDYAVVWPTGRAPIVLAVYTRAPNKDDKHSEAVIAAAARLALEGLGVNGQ
TEM-1, sequence (P62593 24-286 limits assumed): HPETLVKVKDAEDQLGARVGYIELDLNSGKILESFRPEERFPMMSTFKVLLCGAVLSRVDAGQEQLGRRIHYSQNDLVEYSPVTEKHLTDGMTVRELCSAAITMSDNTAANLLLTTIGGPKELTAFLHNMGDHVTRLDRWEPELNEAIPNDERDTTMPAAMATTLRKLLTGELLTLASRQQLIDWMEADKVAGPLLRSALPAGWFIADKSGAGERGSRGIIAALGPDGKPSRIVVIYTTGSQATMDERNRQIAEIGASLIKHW
OXA-48, sequence (Q6XEC0 23-265 limits assumed): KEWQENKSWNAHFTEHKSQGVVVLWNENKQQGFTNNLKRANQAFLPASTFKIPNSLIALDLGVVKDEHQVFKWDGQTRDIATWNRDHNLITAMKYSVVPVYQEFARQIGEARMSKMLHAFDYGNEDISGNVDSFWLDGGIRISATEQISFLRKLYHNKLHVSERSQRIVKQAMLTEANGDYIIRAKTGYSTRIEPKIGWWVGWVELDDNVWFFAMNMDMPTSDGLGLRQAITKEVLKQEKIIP
IMP-1, sequence (P52699 19-246 limits assumed): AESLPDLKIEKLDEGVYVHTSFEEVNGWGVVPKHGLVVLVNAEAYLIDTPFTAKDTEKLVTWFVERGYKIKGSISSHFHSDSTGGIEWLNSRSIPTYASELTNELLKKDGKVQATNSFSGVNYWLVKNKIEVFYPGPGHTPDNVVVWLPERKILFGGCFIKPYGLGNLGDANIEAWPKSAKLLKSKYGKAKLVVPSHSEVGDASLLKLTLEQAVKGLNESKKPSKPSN
NDM-1, sequence (C7C422 29-270 limits assumed): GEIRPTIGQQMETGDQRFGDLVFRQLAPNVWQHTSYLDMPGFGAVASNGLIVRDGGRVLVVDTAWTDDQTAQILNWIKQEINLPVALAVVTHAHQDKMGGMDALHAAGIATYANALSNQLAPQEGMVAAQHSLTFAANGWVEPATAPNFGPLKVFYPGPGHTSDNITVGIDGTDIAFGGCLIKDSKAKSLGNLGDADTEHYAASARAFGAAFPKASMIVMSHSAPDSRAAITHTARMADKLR
NDM-5, sequence (C7C422 29-270 V88L/M154L): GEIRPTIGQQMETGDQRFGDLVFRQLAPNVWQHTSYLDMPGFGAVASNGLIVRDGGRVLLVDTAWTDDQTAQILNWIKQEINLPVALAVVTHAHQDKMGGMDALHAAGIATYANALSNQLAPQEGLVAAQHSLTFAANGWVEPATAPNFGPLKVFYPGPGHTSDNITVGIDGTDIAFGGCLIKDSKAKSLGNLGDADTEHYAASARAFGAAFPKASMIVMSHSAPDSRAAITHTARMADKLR
CTX-M-14, sequence (Q9L5C7 entry or part of it): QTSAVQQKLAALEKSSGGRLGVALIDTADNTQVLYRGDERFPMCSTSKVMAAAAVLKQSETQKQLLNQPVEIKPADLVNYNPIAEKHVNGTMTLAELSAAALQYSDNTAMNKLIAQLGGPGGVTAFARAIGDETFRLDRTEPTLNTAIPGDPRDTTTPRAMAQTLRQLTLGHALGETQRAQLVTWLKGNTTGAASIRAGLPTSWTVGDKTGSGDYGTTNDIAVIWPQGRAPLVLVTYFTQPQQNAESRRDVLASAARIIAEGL

NC(=O)N1Cc2cn(Cc3ccc4c(c3C(=O)O)OB(O)CC4)nc2C1 [Compound 73] gave an IC50 [1, 14] of 10 to 1000 nM, an IC50 [1, 15] of under 1000 nM and an IC50 [2, 16] of 10 to 1000 nM. For the same compound, the IC50 [2, 17] was under 1000 nM, the IC50 [3] was 10 to 1000 nM and the IC50 [4, 18] was under 1000 nM. The IC50 [4, 19] was 10 to 1000 nM, the IC50 [5] was 10 to 1000 nM and the “inhibitory activity on KPC-2 compared to avibactam” value [6] was “better or comparable”. For the same compound, the IC50 [6] was under 10 nM, the “inhibitory activity on TEM-1 compared to avibactam” value [7] was “better or comparable” and the IC50 [7] was under 10 nM. For the same compound, the “inhibitory activity on SHV-12 compared to control drugs” value [8] was “comparable to avibactam and tazobactam and superior to taniborbactam”, the IC50 [8] was under 10 nM and the “inhibitory activity on CTX-M-14 compared to avibactam” value [9] was “better or comparable”. The IC50 [9] was 10 to 1000 nM, the “inhibitory activity on OXA-48 compared to avibactam” value [10] was “better or comparable” and the IC50 [10] was 10 to 1000 nM. For the same compound, the IC50 [11] was 10 to 1000 nM.

Work on CN1Cc2cn(Cc3ccc4c(c3C(=O)O)OB(O)CC4)nc2C1 [Compound 74] yielded an IC50 [1, 14] of 10 to 1000 nM, an IC50 [1, 15] of under 1000 nM and an IC50 [2, 16] of 10 to 1000 nM. For the same compound, the IC50 [2, 17] was under 1000 nM, the IC50 [3] was 10 to 1000 nM and the IC50 [4, 18] was under 1000 nM. The IC50 [4, 19] was 10 to 1000 nM, the IC50 [5] was 10 to 1000 nM and the “inhibitory activity on KPC-2 compared to avibactam” value [6] was “better or comparable”. For the same compound, the IC50 [6] was under 10 nM, the “inhibitory activity on TEM-1 compared to avibactam” value [7] was “better or comparable” and the IC50 [7] was under 10 nM. The “inhibitory activity on SHV-12 compared to control drugs” value [8] was “comparable to avibactam and tazobactam and superior to taniborbactam”, the IC50 [8] was under 10 nM and the “inhibitory activity on CTX-M-14 compared to avibactam” value [9] was “better or comparable”. For the same compound, the IC50 [9] was 10 to 1000 nM, the “inhibitory activity on OXA-48 compared to avibactam” value [10] was “better or comparable” and the IC50 [10] was 10 to 1000 nM. It also gave an IC50 [11] of 10 to 1000 nM.

Compound NCCN[C@H]1CC[C@H](CC(=O)N[C@H]2Cc3cccc(C(=O)O)c3OB2O)CC1 [Taniborbactam, reference compound] has an IC50 [3] of 1000 to 100000 nM, an IC50 [4, 19] of 10 to 1000 nM and an IC50 [5] of under 10 nM. The IC50 [6] was 10 to 1000 nM, the IC50 [9] was 10 to 1000 nM and the IC50 [10] was 10 to 1000 nM. For the same compound, the “MIC value of compounds in combination with meropenem, EC1541 (blaIMP-1)” value [12] was “++++ (++++ indicates MIC < 4 μg/ml)”, the “MIC value of compounds in combination with meropenem, KP090344 (blaKPC-2)” value ([13]; clinical isolate KP090344 (blaKPC-2)) was “++++ (++++ indicates MIC < 4 μg/ml)” and the “MIC value of compounds in combination with meropenem, KP140508 (blaKPC-2)” value ([13]; clinical isolate KP140508 (blaKPC-2)) was “++++ (++++ indicates MIC < 4 μg/ml)”. For the same compound, the “MIC value of compounds in combination with meropenem, KP140912 (blaKPC-2)” value ([13]; clinical isolate KP140912 (blaKPC-2)) was “++++ (++++ indicates MIC < 4 μg/ml)”.
